pEC50: −log10 of the molar value. Like-named read-outs stand apart in the source and are kept apart here.
Assays:
MERS-CoV [1] = test: microbe, parasite or virus in culture; details: Middle East respiratory syndrome-related coronavirus, Vero C1008, 48 h
in vitro = details: African green monkey
SARS-CoV2 [2] = assay type: cell-based
[3] = target: T1, full-length MERS-CoV N protein (Middle East respiratory syndrome-related coronavirus, UniProt K9N4V7)
MERS-CoV [4] = assay type: cell-based
MERS-CoV [5] = system: MERS-CoV
MHV [6] = test: MHV-infected mice treated with PSX-01 (clinical score, body weight, liver histology); details: PSX-01 10 mM intraperitoneal
MERS-CoV N protein = assay type: cell-based
MERS-CoV N-NTD [7] = target: T2, MERS-CoV N-NTD (Middle East respiratory syndrome-related coronavirus, UniProt K9N4V7)
MERS-CoV [8] = assay type: cell-based; remark: listed apart in the source
SARS-CoV2 [9] = system: SARS-CoV2
[10] = target: T1, full-length MERS-CoV N protein; remark: listed apart in the source
MERS-CoV N-NTD [11] = target: T2, MERS-CoV N-NTD; remark: listed apart in the source
MHV [12] = assay type: cell-based, mouse hepatitis virus (MHV)
MERS-CoV [13] = assay type: cell-based; remark: listed apart in the source
[14] = target: T1, full-length MERS-CoV N protein; remark: listed apart in the source
PEDV = assay type: cell-based, porcine epidemic diarrhea virus (PEDV)

SMILES: O=C(OCc1ccccc1)N1c2ccccc2CC1CO (centres unmarked) [Compound P1, benzyl 2-(hydroxymethyl)-1-indolinecarboxylate]
- pEC50 (MERS-CoV [1]): < 4.00
- CC50 (in vitro): 460 µM

SMILES: CCc1cccc2c3c([nH]c12)C(CC)(CC(=O)O)OCC3 (centres unmarked) [Compound P2, etodolac]
- pEC50 (MERS-CoV [1]): < 4.00
- CC50 (in vitro): 570 µM

SMILES: CN(C)Cc1c[nH]c2ccc(OCc3ccccc3)cc12 [PSX-01, 5-benzyloxygramine]
- viral titer (plaque assay) (SARS-CoV2 [2]): affected the viral titer
- shift in the fluorescence spectrum of full-length N protein [3]: “blue shift” was observed
- extracellular viral titer (plaque assay) (MERS-CoV [4]): affected the viral titer
- viral production (plaque assay) (MERS-CoV [4]): halted
- pEC50 (MERS-CoV [5]): 4.49
- TI (CC50/EC50) (MERS-CoV [5]): 25.1
- appearance (clinical score) (MHV [6]; 4 h before MHV 10^4 pfu, mice): prevent the appearance change caused by MHV
- liver histology (H&E stain) (MHV [6]; MHV infection, day 7): rescue the increases of adipocytes and inflammation
- N protein expression (MERS-CoV N protein): suppressed N protein expression in most cells
- intracellular N protein distribution (MERS-CoV N protein): condensation of the intracellular N protein fluorescence signal
- N-NTD denaturation melting temperature (MERS-CoV N-NTD [7]): 45 °C
- suppression of viral RNA replication (MERS-CoV [8]): 40%
- viral RNA replication (MERS-CoV [8]): halted
- pEC50 (SARS-CoV2 [9]): 4.46
- TI (CC50/EC50) (SARS-CoV2 [9]): 23
- N protein thermal denaturation [10]: delayed N protein thermal denaturation
- binding to the N protein relative to the other leads (MERS-CoV N-NTD [11]): bound more tightly to the N protein than P1 or P2
- shift in the intrinsic N-NTD fluorescence spectrum (MERS-CoV N-NTD [11]): comparatively larger blue shift
- cytopathic effect (MHV [12]): significantly reduce the cytopathic effect
- cytopathic effect (MERS-CoV [13]): significantly reduce the cytopathic effect
- maximum dimension (Dmax) of N protein [14]: 230
- cytopathic effect (PEDV): significantly reduce the cytopathic effect
